Reference: patent publication US8399417B2, “Food” (Ajinomoto Co., Inc., priority 2007, dated 2013)

Columns and labels:
Format in all cases: in vivo, human
[1] = Fat-like richness and smoothness imparted to low-calorie mayonnaise, quantitative sensory evaluation test; settings: for Taste profile / Fat-like richness / Smoothness: Table 9; for Fat-like richness / Smoothness: control 0, strong 3, very strong 5 points
Experimental: In the same manner as that in Example 1 except that commercially-available low-calorie mayonnaise (having a fat content reduced by 50% compared with a normal product) was used instead of low-fat milk, each peptide was measured for its fat-like richness-imparting intensity.
In the same manner as that in Example 2, each sample was measured for its intensity of imparting fat-like richness.

[2] = Fat-like richness and smoothness imparted to low-fat milk, quantitative sensory evaluation test; settings: for Taste profile / Fat-like richness / Smoothness: Table 8; for Fat-like richness / Smoothness: n=12, control 0, strong 3, very strong 5 points
Experimental: (§1) The quantitative sensory evaluation test was performed as follows. Each of γ-Glu-Cys-Gly (glutathione), γ-Glu-Val-Gly, and γ-Glu-Abu-Gly was mixed with commercially-available low-fat milk (non-fat milk solids content: 8.6% or more, milk fat content: 1.5%) at a concentration of 0.00001 to 1 g/dl, and the intensity of imparting fat-like richness was measured.
It should be noted that each peptide was dissolved in low-fat milk, and then a sample, the pH of which was lowered, was adjusted with NaOH so that the pH might be ±0.2 with respect to the pH of the low-fat milk free of peptide.
The sensory score for fat-like richness and smoothness was defined as follows: control (free of peptide): 0 point; strong: 3 points; and very strong: 5 points. Then, the test was performed with n=12. […] As clear from Table 6, it was confirmed that the peptide imparted fat-like richness and smoothness to low-fat milk at a lower concentration than glutathione.
as §1, with “γ-Glu-Val-Gly” for “γ-Glu-Cys-Gly (glutathione), γ-Glu-Val-Gly,”, “cinacalcet” for “γ-Glu-Abu-Gly”
It should be noted that each sample was dissolved in low-fat milk, and then a sample, the pH of which was lowered, was adjusted with NaOH so that the pH might be ±0.2 with respect to the pH of the low-fat milk free of a sample.
(§2) The sensory score for fat-like richness and smoothness was defined as follows: control (free of sample): 0 point; strong: 3 points; and very strong: 5 points. Then, the test was performed with n=12.

[3] = Fat-like richness and smoothness imparted to low-fat yogurt, quantitative sensory evaluation test; settings: Table 10; for Fat-like richness / Smoothness: n=12, control 0, strong 3, very strong 5 points
Experimental: The quantitative sensory evaluation test was performed as follows. Each of γ-Glu-Val-Gly and cinacalcet was mixed with commercially-available low-fat yogurt (non-fat milk solids content: 10.0%, milk fat content: 1.0%) at a concentration of 0.00001 to 1 g/dl, and the intensity of imparting fat-like richness was measured.
It should be noted that after each sample was dissolved in low-fat yogurt, and a sample, the pH of which was lowered, was adjusted with NaOH so that the pH might be ±0.2 with respect to the pH of the […] free of a sample.
as §2

[4] = 0.0001 g/dl in low-calorie mayonnaise
[5] = 0.001 g/dl in low-calorie mayonnaise

For `C[C@@H](NCCCc1cccc(C(F)(F)F)c1)c1cccc2ccccc12` [Cinacalcet, (R)—N-(3-(3-(trifluoromethyl)phenyl)propyl)-1-(1-naphthyl)ethylamine, reference compound], the Taste profile [1, 4] was “Lasting is present in aftertaste”, the Fat-like richness [1, 4] was 1.8 points and the Smoothness [1, 4] was 2.5 points. For the same molecule, the Taste profile [1, 5] was “Thickness and lasting”, the Fat-like richness [1, 5] was 4.3 points and the Smoothness [1, 5] was 4.8 points. The “concentration at which fat-like richness and smoothness are imparted, compared with γ-Glu-Val-Gly” value ([1]; low-calorie mayonnaise, conclusion from Table 9) was “comparable concentration to γ-Glu-Val-Gly”, the Taste profile ([2]; 0.0001 g/dl in low-fat milk) was “Lasting is present in aftertaste” and the Fat-like richness ([2]; 0.0001 g/dl in low-fat milk) was 1.3 points. For the same molecule, the Smoothness ([2]; 0.0001 g/dl in low-fat milk) was 1.7 points, the Taste profile ([2]; 0.001 g/dl in low-fat milk) was “Thickness and lasting” and the Fat-like richness ([2]; 0.001 g/dl in low-fat milk) was 4.0 points. The Smoothness ([2]; 0.001 g/dl in low-fat milk) was 4.2 points, the “concentration at which fat-like richness and smoothness are imparted, compared with γ-Glu-Val-Gly” value ([2]; low-fat milk, conclusion from Table 8) was “comparable concentration to γ-Glu-Val-Gly” and the Taste profile ([3]; 0.0001 g/dl in low-fat yogurt) was “Lasting is present in aftertaste”. It also gave a Fat-like richness ([3]; 0.0001 g/dl in low-fat yogurt) of 1.5 points, a Smoothness ([3]; 0.0001 g/dl in low-fat yogurt) of 2.0 points and a Fat-like richness ([3]; 0.001 g/dl in low-fat yogurt (milk fat 1.0%)) of 4.0 points. The Taste profile ([3]; 0.001 g/dl in low-fat yogurt) was “Lasting is present in aftertaste” and the Smoothness ([3]; 0.001 g/dl in low-fat yogurt) was 4.5 points.
